# How the values were obtained:
# Test in all cases: relative viability (nuclei count vs DMSO), 5 days (fraction); higher = more cells survive
# [1] = compound: C1COCCN1CC2=CC(=O)C(=CO2)OCCCCCSC3=C4C=CC(=CC4=NC=C3)C(F)(F)F [EHT 1864] + COc1cccc2cc(-c3nc([C@H]4CC[C@H](C(=O)O)CC4)n4ncnc(N)c34)[nH]c12 [OSI-027] (partner 0.5 µM)
# Outline: (§1)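 Lung cancer cell lines were seeded in 1536-well plates and dosed by pin tool the next day, with either a single drug or a fixed anchor-drug dose combined with five library-drug doses (not always all listed) spaced in √10 steps. Five days later, one step fixed the cells and stained their nuclei (final 0.05% Triton X-100, 1% formaldehyde, 1 ug/ml Hoechst), and nuclei were counted on 4× images. Relative viability is the nuclei count in treated wells divided by the count in vehicle wells, and each value is the median of duplicate plates.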
# [2] = compound: C1COCCN1CC2=CC(=O)C(=CO2)OCCCCCSC3=C4C=CC(=CC4=NC=C3)C(F)(F)F [EHT 1864] + CC(=O)c1c(C)c2cnc(Nc3ccc(N4CCNCC4)cn3)nc2n(C2CCCC2)c1=O [Palbociclib] (partner 0.5 µM)
# Outline: as §1
# [3] = compound: C1COCCN1CC2=CC(=O)C(=CO2)OCCCCCSC3=C4C=CC(=CC4=NC=C3)C(F)(F)F [EHT 1864] + CS(=O)(=O)N1CCN(Cc2cc3nc(-c4cccc5[nH]ncc45)nc(N4CCOCC4)c3s2)CC1 [Pictilisib] (partner 1 µM)
# Outline: as §1
# [4] = compound: C1COCCN1CC2=CC(=O)C(=CO2)OCCCCCSC3=C4C=CC(=CC4=NC=C3)C(F)(F)F [EHT 1864] + CCNC(=O)c1noc(-c2cc(C(C)C)c(O)cc2O)c1-c1ccc(CN2CCOCC2)cc1 [Luminespib] (partner 0.01 µM)
# Outline: as §1
Cell Line,relative viability ([1]; first compound 0.04 µM),relative viability ([1]; first compound 0.1265 µM),relative viability ([1]; first compound 0.4 µM),relative viability ([1]; first compound 1.265 µM),relative viability ([1]; first compound 4 µM),relative viability ([2]; first compound 0.04 µM),relative viability ([2]; first compound 0.1265 µM),relative viability ([2]; first compound 0.4 µM),relative viability ([2]; first compound 1.265 µM),relative viability ([2]; first compound 4 µM),relative viability ([3]; first compound 0.04 µM),relative viability ([3]; first compound 0.4 µM),relative viability ([3]; first compound 1.265 µM),relative viability ([3]; first compound 4 µM),relative viability ([4]; first compound 0.04 µM),relative viability ([4]; first compound 0.1265 µM),relative viability ([4]; first compound 0.4 µM),relative viability ([4]; first compound 1.265 µM),relative viability ([4]; first compound 4 µM),relative viability ([3]; first compound 0.1265 µM)
NCI-H358,0.842,0.745,0.863,0.799,0.685,0.14,0.117,0.133,0.135,0.124,0.349,0.342,0.315,0.3,0.302,0.398,0.313,0.469,0.414,
EMC-BAC-2,0.465,0.309,0.383,0.37,0.341,0.528,0.491,0.52,0.492,0.518,0.525,0.548,0.517,0.517,1.12,1.09,1.16,1.12,1.05,0.551
NCI-H23,0.511,0.352,0.673,0.523,0.563,0.559,0.429,0.531,0.546,0.492,0.476,0.432,0.593,0.55,0.194,,0.242,0.193,0.204,
RERF-LC-KJ,0.621,0.539,0.52,0.575,0.541,1.09,0.989,0.929,1.02,1.11,0.617,0.459,0.491,0.479,1.34,1.02,1.17,1.29,1.06,0.521
SK-MES-1,0.628,0.542,0.572,0.592,0.562,0.379,0.3,0.356,0.301,0.342,0.398,0.34,0.337,0.315,0.596,0.64,0.748,0.726,0.798,0.361
LC-2-ad,0.808,,1,0.98,0.788,0.481,0.436,0.447,0.46,0.464,0.335,0.491,0.503,0.508,1.12,,0.912,1,0.951,
HCC-15,0.608,,0.704,0.66,0.615,0.76,,0.78,0.682,0.72,0.737,0.793,0.656,0.731,0.451,,0.24,0.369,0.251,0.577
NCI-H2405,0.655,0.647,0.642,0.535,0.714,0.536,0.497,0.469,0.5,0.538,0.447,0.456,,0.439,0.745,0.667,0.703,0.581,0.603,0.398
LXF-289,0.848,0.738,0.769,0.775,0.713,0.594,0.572,0.542,0.537,0.581,0.788,0.755,0.794,0.727,0.739,0.544,0.689,0.657,0.647,0.766
CAL-12T,0.591,0.437,0.593,0.552,0.8,0.409,0.357,0.459,0.518,0.443,0.596,0.446,0.457,0.574,0.563,0.178,0.366,0.373,0.46,0.542
COR-L23,0.821,0.467,0.647,0.796,0.747,0.336,0.216,0.336,0.283,0.272,0.716,0.78,0.692,0.822,0.699,0.528,0.613,0.642,0.494,0.523
NCI-H1755,0.779,0.619,0.691,0.619,0.618,0.46,0.437,0.42,0.43,0.42,0.495,0.403,0.436,0.428,0.618,0.3,0.601,0.42,0.401,0.376
NCI-H1437,0.852,0.916,0.813,0.722,0.703,0.311,0.293,0.309,0.236,0.302,0.438,0.418,0.492,0.397,1.1,1.04,1.03,0.912,0.681,0.47
NCI-H2085,0.719,,0.772,0.719,0.812,0.446,0.459,0.456,0.451,0.417,0.555,0.47,0.448,0.428,0.432,,0.541,0.415,0.442,0.524
H3255,0.552,0.582,0.603,0.602,0.616,0.298,0.322,0.306,0.31,0.312,0.405,0.512,0.479,0.518,0.895,0.799,1.01,0.917,1.07,0.421
NCI-H650,0.53,0.354,0.546,0.531,0.49,0.332,0.256,0.346,0.327,0.325,0.915,0.941,0.895,0.847,0.882,0.658,0.664,0.889,0.865,

# From the supplement of paper PMC10307832
